# Data taken from patent publication US12208088B2 (Genentech, Inc., priority 2018, dated 2025).
# Target: HPK1 (Homo sapiens (Human), UniProt Q92918)
# Assay: HPK1 Lantha binding assay ("Lanth")
# Settings: binding assays; Morrison Ki fit
# Summary of the method: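 Ki values are from Morrison-equation fitting of 665/615 nm TR-FRET signals, taking enzyme level, tracer level and tracer Kd into account. The assay mix held HPK1 (2 nM), Eu-anti-GST antibody (2 nM) and Tracer222 (15 nM). Incubations were two 1 h steps at 23 °C, on 5-fold serial compound dilutions.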
# Chain of HPK1 (Q92918 1-346 limits assumed): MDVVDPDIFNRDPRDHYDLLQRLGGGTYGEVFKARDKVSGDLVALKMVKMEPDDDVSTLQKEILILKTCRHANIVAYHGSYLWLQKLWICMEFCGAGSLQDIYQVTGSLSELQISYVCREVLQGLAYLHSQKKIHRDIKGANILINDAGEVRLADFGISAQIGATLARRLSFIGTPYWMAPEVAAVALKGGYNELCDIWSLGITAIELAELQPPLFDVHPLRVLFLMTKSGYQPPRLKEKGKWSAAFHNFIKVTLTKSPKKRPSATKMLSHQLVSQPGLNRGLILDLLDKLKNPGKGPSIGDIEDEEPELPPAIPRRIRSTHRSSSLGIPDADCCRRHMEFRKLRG
row,Ki,SMILES
1,66.4 nM,"NS(=O)(=O)c1cccc(-c2cnc3c(c2)C2(CC2)CN3)c1 [Compound 62, 3-(1′,2′-Dihydrospiro[cyclopropane-1,3′-pyrrolo[2,3-b]pyridin]-5′-yl)benzenesulfonamide]"
2,304 nM,"CN(C)C(=O)c1c(N)ccc(-c2cnc3c(c2Cl)[C@]2(CCNC(=O)C2)CN3)c1F [Compound 122a, (R)-6-Amino-3-(4′-chloro-2-oxo-1′,2′-dihydrospiro[piperidine-4,3′-pyrrolo[2,3-b]pyridin]-5′-yl)-2-fluoro-N,N-dimethylbenzamide]"
3,1.74 nM,"CN(C)C(=O)c1c(N)ccc(-c2cnc3c(c2Cl)[C@@]2(CC[C@@H](C(N)=O)C2)CN3)c1F (single isomer, unassigned) [Compound 100b]"
4,97.6 nM,"CN(C)C(=O)c1c(N)ccc(-c2cnc3c(c2Cl)[C@]2(CC[C@H](n4ccccc4=O)C2)CN3)c1F (relative stereo) [Compound 196a, 6-Amino-3-((1R,3S)-4′-chloro-3-(2-oxopyridin-1(2B)-yl)-1′,2′-dihydrospiro[cyclopentane-1,3′-pyrrolo[2,3-b]pyridin]-5′-yl)-2-fluoro-N,N-dimethylbenzamide]"
5,3.56 nM,"Cc1cnn([C@H]2CC[C@@]3(CNc4ncc(-c5ccc(N)c(C(=O)N(C)C)c5F)c(Cl)c43)C2)c1 (relative stereo) [Compound 125a, 6-Amino-3-((1R,3S)-4′-chloro-3-(4-methyl-1H-pyrazol-1-yl)-1′,2′-dihydrospiro[cyclopentane-1,3′-pyrrolo[2,3-b]pyridin]-5′-yl)-2-fluoro-N,N-dimethylbenzamide]"
6,7.9 nM,"C[C@H]1C[C@@]12CNc1ncc(-c3ccc(N)c(C(=O)N(C)C)c3F)cc12 (relative stereo) [Compound 86a, 6-Amino-2-fluoro-N,N-dimethyl-3-((1R,2S)-2-methyl-1′,2′-dihydrospiro[cyclopropane-1,3′-pyrrolo[2,3-b]pyridin]-5′-yl)benzamide]"
7,12.7 nM,"Nc1cc(-c2cnc3c(c2)C2(CC2)CN3)cc(-c2ncccc2CO)c1 [Compound 10, (2-(3-Amino-5-(1′,2′-dihydrospiro[cyclopropane-1,3′-pyrrolo[2,3-b]pyridin]-5′-yl)phenyl)pyridin-3-yl)methanol]"
8,126 nM,"Nc1ccc(-c2cnc3c(c2Cl)C2(CC=CC2)CN3)cc1 [Compound 224, 4-(4′-Chloro-1′,2′-dihydrospiro[cyclopentane-1,3′-pyrrolo[2,3-b]pyridin]-3-en-5′-yl)aniline]"
9,132 nM,"Cc1nc(N)n([C@H]2CC[C@@]3(CNc4ncc(-c5ccc(N)c(C(=O)N(C)C)c5F)c(Cl)c43)C2)n1 (relative stereo) [Compound 158a, 6-Amino-3-((1R,3S)-3-(5-amino-3-methyl-1H-1,2,4-triazol-1-yl)-4′-chloro-1′,2′-dihydrospiro[cyclopentane-1,3′-pyrrolo[2,3-b]pyridin]-5′-yl)-2-fluoro-N,N-dimethylbenzamide]"
10,10.4 nM,"CC[C@@H]1C[C@]12CNc1ncc(-c3ccc(N)c(C(=O)N(C)C)c3F)cc12 (single isomer, unassigned) [Compound 243b]"
11,44.8 nM,"CN(C)C(=O)c1c(N)ccc(-c2cnc3c(c2Cl)[C@]2(CC[C@@H](C#N)CC2)CN3)c1F [Compound 241a, 6-Amino-3-((1r,4r)-4′-chloro-4-cyano-1′,2′-dihydrospiro[cyclohexane-1,3′-pyrrolo[2,3-b]pyridin]-5′-yl)-2-fluoro-N,N-dimethylbenzamide]"
12,38.6 nM,"NC(=O)[C@H]1CC[C@@]2(CNc3ncc(-c4c[nH]c5c(N6CCNCC6=O)cccc45)c(Cl)c32)C1 (relative stereo) [Compound 305a, (1RS,3SR)-4′-Chloro-5′-(7-(2-oxopiperazin-1-yl)-1H-indol-3-yl)-1′,2′-dihydrospiro[cyclopentane-1,3′-pyrrolo[2,3-b]pyrdine]-3-carboxamide]"
13,26 nM,"CN(C)C(=O)c1c(N)ccc(-c2cnc3c(c2Cl)[C@@]2(CCNC(=O)C2)CN3)c1F [Compound 122b, (S)-6-Amino-3-(4′-chloro-2-oxo-1′,2′-dihydrospiro[piperidine-4,3′-pyrrolo[2,3-b]pyridin]-5′-yl)-2-fluoro-N,N-dimethylbenzamide]"
14,34 nM,"CN(C)C(=O)c1c(N)ccc(-c2cnc3c(c2Cl)[C@]2(CC[C@H](n4ccc(N)n4)C2)CN3)c1F (relative stereo) [Compound 133a, 6-Amino-3-((1R,3S)-3-(3-amino-1H-pyrazol-1-yl)-4′-chloro-1′,2′-dihydrospiro[cyclopentane-1,3′-pyrrolo[2,3-b]pyridin]-5′-yl)-2-fluoro-N,N-dimethylbenzamide]"
15,55.8 nM,"CN(C)C(=O)c1c(N)ccc(-c2cnc3c(c2)C2(CN3)CC(=CC(N)=O)C2)c1F (centres unmarked) [Compound 101, 6-Amino-3-(3-(2-amino-2-oxoethylidene)-1′,2′-dihydrospiro[cyclobutane-1,3′-pyrrolo[2,3-b]pyridin]-5′-yl)-2-fluoro-N,N-dimethylbenzamide]"
16,46.1 nM,"CN(C)C(=O)c1c(N)ccc(-c2cnc3c(c2Cl)[C@]2(CC[C@H](n4cc(C(N)=O)cn4)C2)CN3)c1F (relative stereo) [Compound 180a, 1-((1R,3S)-5′-(4-Amino-3-(dimethylcarbamoyl)-2-fluorophenyl)-4′-chloro-1′,2′-dihydrospiro[cyclopentane-1,3′-pyrrolo[2,3-b]pyridin]-3-yl)-1H-pyrazole-4-carboxamide]"

row,Ki,SMILES
1,41.8 nM,"CC1(C#N)C(=O)Nc2ccc(-c3cnc4c(c3)C3(CC3)CN4)cc21 (centres unmarked) [Compound 279, 5-(1′,2′-dihydrospiro[cyclopropane-1,3′-pyrrolo[2,3-b]pyridin]-5′-yl)-3-methyl-2-oxoindoline-3-carbonitrile]"
2,5.94 nM,"Cc1c(CC#N)ccnc1-c1cccc(-c2cnc3c(c2Cl)C2(CC=CC2)CN3)c1F [Compound 252, 2-(2-(3-(4′-Chloro-1′,2′-dihydrospiro[cyclopentane-1,3′-pyrrolo[2,3-b]pyridin]-3-en-5′-yl)-2-fluorophenyl)-3-methylpyridin-4-yl)acetonitrile]"
3,74.2 nM,"Cn1cc([C@H]2CCCN2C(=O)c2cccc(-c3cnc4c(c3)C3(CC3)CN4)c2F)cn1 (single isomer, unassigned) [Compound 174a]"
4,199 nM,"O=S(=O)(Nc1cccc(-c2cnc3c(c2Cl)C2(CC=CC2)CN3)c1)C1CC1 [Compound 209, N-(3-(4′-Chloro-1′,2′-dihydrospiro[cyclopentane-1,3′-pyrrolo[2,3-b]pyridin]-3-en-5′-yl)phenyl)cyclopropanesulfonamide]"
5,75.6 nM,"CNC(=O)[C@H]1CC[C@@]2(CNc3ncc(-c4ccc(N)c(C(=O)N(C)C)c4F)c(Cl)c32)C1 (relative stereo) [Compound 98a, (1R,3S)-5′-(4-Amino-3-(dimethylcarbamoyl)-2-fluorophenyl)-4′-chloro-N-methyl-1′,2′-dihydrospiro[cyclopentane-1,3′-pyrrolo[2,3-b]pyridine]-3-carboxamide]"
6,135 nM,"NS(=O)(=O)c1ccc(-c2cnc3c(c2)C2(CC2)CN3)cc1 [Compound 65, 4-(1′,2′-Dihydrospiro[cyclopropane-1,3′-pyrrolo[2,3-b]pyridin]-5′-yl)benzenesulfonamide]"
7,916 nM,"CC(=O)N1CC2(CNc3ncc(-c4ccc(N)c(C(=O)N(C)C)c4F)cc32)C1 [Compound 93, 3-(1-Acetyl-1′,2′-dihydrospiro[azetidine-3,3′-pyrrolo[2,3-b]pyridin]-5′-yl)-6-amino-2-fluoro-N,N-dimethylbenzamide]"
8,10.3 nM,"Cn1cc(C2CCCCN2C(=O)c2cccc(-c3cnc4c(c3Cl)[C@]3(CC[C@H](O)CC3)CN4)c2F)cn1 (single isomer, unassigned) [Compound 246a]"
9,41.3 nM,"CN(C)C(=O)c1c(N)ccc(-c2cnc3c(c2Cl)[C@]2(CC[C@@](C)(C#N)CC2)CN3)c1F [Compound 250b, 6-Amino-3-((1r,4r)-4′-chloro-4-cyano-4-methyl-1′,2′-dihydrospiro[cyclohexane-1,3′-pyrrolo[2,3-b]pyridin]-5′-yl)-2-fluoro-N,N-dimethylbenzamide]"
10,11.6 nM,"CN(C)C(=O)c1c(N)ccc(-c2cnc3c(c2Cl)[C@@]2(CN3)C[C@@H]2CO)c1F (single isomer, unassigned) [Compound 39c]"
11,243 nM,"CS(=N)(=O)c1ccc2[nH]cc(-c3cnc4c(c3)C3(CC3)CN4)c2c1 (centres unmarked) [Compound 331, (3-(1′,2′-Dihydrospiro[cyclopropane-1,3′-pyrrolo[2,3-b]pyridin]-5′-yl)-1H-indol-5-yl)(imino)(methyl)-γ6-sulfanone]"
12,8.27 nM,"Cc1noc([C@H]2CC[C@@]3(CNc4ncc(-c5ccc(N)c(C(=O)N(C)C)c5F)c(Cl)c43)C2)n1 (relative stereo) [Compound 108a, 6-Amino-3-((1R,3S)-4′-chloro-3-(3-methyl-1,2,4-oxadiazol-5-yl)-1′,2′-dihydrospiro[cyclopentane-1,3′-pyrrolo[2,3-b]pyridin]-5′-yl)-2-fluoro-N,N-dimethylbenzamide]"
13,68.2 nM,"NC1CN(C(=O)c2cccc(-c3cnc4c(c3Cl)C3(CC3)CN4)c2F)C1 [Compound 51, (3-Aminoazetidin-1-yl)(3-(4′-chloro-1′,2′-dihydrospiro[cyclopropane-1,3′-pyrrolo[2,3-b]pyridin]-5′-yl)-2-fluorophenyl)methanone]"
14,70.8 nM,"CS(=O)(=O)Nc1cccc(-c2cnc3c(c2Cl)C2(CC=CC2)CN3)c1 [Compound 210, N-(3-(4′-Chloro-1′,2′-dihydrospiro[cyclopentane-1,3′-pyrrolo[2,3-b]pyridin]-3-en-5′-yl)phenyl)methanesulfonamide]"
15,51.9 nM,"CC(C)C1C[C@]12CNc1ncc(-c3ccc(N)c(C(=O)N(C)C)c3F)cc12 (single isomer, unassigned) [Compound 234d]"
16,28.4 nM,"C[C@]1(C(N)=O)CC[C@@]2(CNc3ncc(-c4c[nH]c5ccc(C#N)cc45)c(Cl)c32)C1 (relative stereo) [Compound 337a, (1R,3S)-4′-Chloro-5′-(5-cyano-1H-indol-3-yl)-3-methyl-1′,2′-dihydrospiro[cyclopentane-1,3′-pyrrolo[2,3-b]pyridine]-3-carboxamide]"
